Experimental data published in article PMC6215995 (International Journal for Parasitology: Drugs and Drug …, 2018).
Like-named read-outs stand apart in the source and are kept apart here. Marks after values point to notes of the source that are not given here.

Key:
β-hematin formation = assay: Inhibition of β-hematin formation assay; assay type: biochemical; details: MOG lipid catalyst, sodium acetate pH 4.8, 37 °C, 2 h; read-out: β-hematin inhibition IC50 (mM)± SD
Protocol: The assay was performed using a lipid as a catalyst to promote crystallization ([Pisciotta et al., 2007]; [Fitch et al., 1999]). Briefly, drug stock solutions were prepared in DMSO and were used at a final concentration of up to 30 mM. […] After incubation for 30 min at room temperature, the amount of solubilized monomeric heme was determined by measuring the absorbance at 405 nm. […] The absorbance was read at 405 nm to determine the total amount of heme present in each well. The inhibition of heme crystallization was determined as a function of the amount of monomeric heme that was not crystallized divided by the total amount of heme present in the assay mixture. The results are expressed as IC50 values based on the percentage inhibition of β-hematin formation by the compounds […] and DAQ.

BGM-VN = details: MTT, 24 h
Protocol: The compounds (20 μL), at various concentrations (400–1.0 μM), were placed in the 96-well plates, incubated with the cultured cells for 24 h under a 5% CO2 atmosphere at 37 °C and then the 3-(4,5-dimethylthiazol-2-yl)-2,5-diphenyltetrazolium bromide (MTT) solution (5 mg/mL; 20 μL/well for 3 h) was used to evaluate the mitochondrial viability. The supernatants were carefully removed and 100 μL DMSO were added to each well and mixed to solubilize the formazan crystals. The optical density was determined at 570 and 630 nm (background) (SpectraMax340PC384). The cell viability was expressed as the percentage of the control absorbance in the untreated cells after subtracting the appropriate background. Each test was performed in triplicate in at least two different experiments.

P. berghei NK65 = assay: Suppressive test in P. berghei infected mice; assay type: in vivo; details: for Reduction of parasitemia until day 11 after infection / Mice survival in comparison with the non-treated control / Parasitemia on day 5 / Parasitemia %reduction on day 5 / Parasitemia on day 7 / Parasitemia %reduction on day 7 / Parasitemia on day 9 / Parasitemia %reduction on day 9 / Parasitemia on day 11 / Parasitemia %reduction on day 11 / Parasitemia on day 13 / Parasitemia %reduction on day 13 / Parasitemia on day 15 / Parasitemia %reduction on day 15 / Survival: three consecutive days; for Mice survival in comparison with the non-treated control: Mann-Whitney test p < 0.05; for Parasitemia %reduction on day 5: day 5, vs non treated; for Parasitemia %reduction on day 7: day 7, vs non treated; for Parasitemia %reduction on day 9: day 9, vs non treated; for Parasitemia %reduction on day 11: day 11, vs non treated; for Parasitemia %reduction on day 13: day 13, vs non treated; for Parasitemia %reduction on day 15: day 15, vs non treated
Protocol: The P. berghei NK65 strain was obtained as a donation from New York University and maintained through weekly blood passages. For the experiments, groups of up to 30 mice were inoculated i.p. with 1 × 10^5 infected erythrocytes, kept together for about 24 h, then randomly distributed into groups of five per cage. […] On days 5–15 after the parasite inoculation, blood was taken from the tail of each mouse and used to prepare thin smears that were methanol-fixed, Giemsa-stained, and examined microscopically (1000×) to determine parasitemia. […] The experiments were performed twice.

P. falciparum K1 = assay: Antiplasmodial SYBR green assay, multidrug-resistant strain; assay type: cell-based; details: for Selective index K1: ratio between MDL50 and IC50, K1
Protocol: The freshly sorbitol synchronized ring stages were immediately incubated with the test compounds at various concentrations (from 10 to 0.152 μM or 1.0–0.0152 μM) that were previously solubilized in 0.05% dimethyl sulfoxide (DMSO) (v/v) ([Lambros and Vanderberg, 1979]). […] The antiplasmodial activity of the compounds was measured through SYBR green assay ([Smilkstein et al., 2004]). Briefly, the plates were centrifuged at 700g for 5 min at room temperature to remove the medium, washed with PBS and incubated for 30 min with lysis buffer solution [2.4228 g TRIS, ultra-pure for 20 mM solution, pH 7.5; 1.8612 g of EDTA 5 mM ultrapure for 5 mM solution; 80 μg Saponin (0.008% w/v); 800 μL of Triton X-100 (0.08% v/v); water Type I] and SYBR green I DNA stain (1:20000). The fluorescence of uninfected erythrocytes was considered as background. Fluorescence was measured on fluorimeter (SpectraMax340PC384) at 485/535 nm.
(§1) The half-maximal drug inhibitory concentration (IC50) was estimated by curve fitting using the software from the OriginLab Corporation (USA) and compared to the parasite growth in the drug-free medium.

P. falciparum 3D7 = assay: Antiplasmodial SYBR green assay, CQ-sensitive strain; assay type: cell-based; details: for Selective index 3D7: ratio between MDL50 and IC50, 3D7
Protocol: Briefly, the plates were centrifuged at 700g for 5 min at room temperature to remove the medium, washed with PBS and incubated for 30 min with lysis buffer solution [2.4228 g TRIS, ultra-pure for 20 mM solution, pH 7.5; 1.8612 g of EDTA 5 mM ultrapure for 5 mM solution; 80 μg Saponin (0.008% w/v); 800 μL of Triton X-100 (0.08% v/v); water Type I] and SYBR green I DNA stain (1:20000). The fluorescence of uninfected erythrocytes was considered as background.
as §1

[1] = oral 50 mg/kg, followed until day 30
[2] = K1 multidrug-resistant strain, read-out: IC50 (nM ± SD) P. falciparum K1
[3] = 3D7 CQ-sensitive strain, read-out: IC50 (nM ± SD) P. falciparum 3D7
[4] = 20 mg/kg, followed until day 30
[5] = Plasmodium falciparum, K1 multidrug-resistant strain, read-out: IC50 (nM ± SD) P. falciparum K1
[6] = Plasmodium falciparum, 3D7 CQ-sensitive strain, read-out: IC50 (nM ± SD) P. falciparum 3D7

Molecule | IC50 (β-hematin formation) [mM] | MLD50 BGM-VN (BGM-VN) [µM] | Reduction of parasitemia until day 11 after infection (P. berghei NK65; oral 50 mg/kg) [%] | Mice survival in comparison with the non-treated control (P. berghei NK65; oral 50 mg/kg) | Parasitemia on day 5 (P. berghei NK65; oral 50 mg/kg) | Parasitemia %reduction on day 5 (P. berghei NK65; oral 50 mg/kg) [%] | Parasitemia on day 7 (P. berghei NK65; oral 50 mg/kg) | Parasitemia %reduction on day 7 (P. berghei NK65; oral 50 mg/kg) [%] | Parasitemia on day 9 (P. berghei NK65; oral 50 mg/kg) | Parasitemia %reduction on day 9 (P. berghei NK65; oral 50 mg/kg) [%] | Parasitemia on day 11 (P. berghei NK65; oral 50 mg/kg) | Parasitemia %reduction on day 11 (P. berghei NK65; oral 50 mg/kg) [%] | Parasitemia on day 13 (P. berghei NK65; oral 50 mg/kg) | Parasitemia %reduction on day 13 (P. berghei NK65; oral 50 mg/kg) [%] | Parasitemia on day 15 (P. berghei NK65; oral 50 mg/kg) | Parasitemia %reduction on day 15 (P. berghei NK65; oral 50 mg/kg) [%] | Survival (P. berghei NK65; [1]) | IC50 (P. falciparum K1; [2]) [nM] | IC50 (P. falciparum 3D7; [3]) [nM] | IC50 (P. falciparum K1; [5]) [nM] | further results
N-(4-(dimethylamino)but-2-enyl)-7-chloro-quinolin-4-amine [DAQ] | 0.15 ± 0.03 | 1481 ± 39 | 100 | significantly higher | 0.00 | 100 | 0.00 | 100 | 0.00 | 100 | 0.00 | 100 | 0.77 | 92 | 3.67 | 82 | 28 ± 1 ^b | 50 ± 3 | 46 ± 4 |  | 
N-(prop-2-enyl)-7-chloroquinoline-4-amine [PCQ] | 3 ± 3 | 407 ± 185 |  | not increased | 1.04 |  | 4.83 | 10 | 5.75 | 8 | 7.5 | 32 | 7.0 | 32 | 34.5 | 0 | 17 ± 8 | 405 ± 32 | 377 ± 14 |  | Parasitemia %reduction on day 5 (P. berghei NK65; oral 50 mg/kg, 50 mg/kg): 73%
CCN(CC)CCCC(C)Nc1ccnc2cc(Cl)ccc12 (centres unmarked) [CQ, Chloroquine, reference compound] | 0.76 ± 0.46 |  |  |  |  |  |  |  |  |  |  |  |  |  |  |  |  |  |  |  | Survival in words (P. berghei NK65; [4]): survived until the last day of the experiment; Parasitemia on day 5 (P. berghei NK65; 20 mg/kg): 0.00; Parasitemia %reduction on day 5 (P. berghei NK65; 20 mg/kg): 100%; Parasitemia on day 7 (P. berghei NK65; 20 mg/kg): 0.00; Parasitemia %reduction on day 7 (P. berghei NK65; 20 mg/kg): 100%; Parasitemia on day 9 (P. berghei NK65; 20 mg/kg): 0.00; Parasitemia %reduction on day 9 (P. berghei NK65; 20 mg/kg): 100%; Parasitemia on day 11 (P. berghei NK65; 20 mg/kg): 0.00; Parasitemia %reduction on day 11 (P. berghei NK65; 20 mg/kg): 100%; Parasitemia on day 13 (P. berghei NK65; 20 mg/kg): 0.00; Parasitemia %reduction on day 13 (P. berghei NK65; 20 mg/kg): 100%; Parasitemia on day 15 (P. berghei NK65; 20 mg/kg): 0.00; Parasitemia %reduction on day 15 (P. berghei NK65; 20 mg/kg): 100%; Survival (P. berghei NK65; [4]): >30 ^b; Parasitemia in words (P. berghei NK65; 20 mg/kg, until the last day of evaluation (day 15)): no parasitemia; IC50 (P. falciparum K1; Plasmodium falciparum, K1, read-out: IC50 (nM ± SD) P. falciparum K1): 177 ± 20 nM; IC50 (P. falciparum 3D7; Plasmodium falciparum, 3D7, read-out: IC50 (nM ± SD) P. falciparum 3D7): 36 ± 12 nM
NCCNc1ccnc2cc(Cl)ccc12 [CEQ, N-(2-aminoethyl)-7-chloroquinolin-4-amine] | 1.2 ± 0.76 | 179 ± 40 | 100 | significantly higher | 0.00 | 100 | 0.00 | 100 | 0.00 | 100 | 0.00 | 100 | 0.57 | 94 | 4 | 80 | 26 ± 6 ^b |  |  | 218 ± 44 | Selective index K1 (P. falciparum K1): 821; IC50 (P. falciparum 3D7; [6]): 273 ± 12 nM; Selective index 3D7 (P. falciparum 3D7): 655
O=C(O)CNc1ccnc2cc(Cl)ccc12 [GIQ, Acid 2-(7-chloroquinolin-4-ylamino) acetic] | 7.6 ± 0.2 | >1000 |  |  |  |  |  |  |  |  |  |  |  |  |  |  |  |  |  | > 10000 | Selective index K1 (P. falciparum K1): Inactive; IC50 (P. falciparum 3D7; [6]): > 10000 nM; Selective index 3D7 (P. falciparum 3D7): Inactive; Activity against P. falciparum in words (P. falciparum 3D7; sensitive and resistant parasites, highest dose 10 μM): inactive in all doses tested
